Measurements taken from patent US11091478B2 (Fochon Pharmaceuticals, Ltd., priority 2017, dated 2021).

Key:
DOHH2 cells = experiment: Cell proliferation assay (MTS), DOHH2 cells, 120 h; type: cell-based; settings: Homo sapiens, DOHH-2, 120 h
Procedure, shortened: (§1)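 RS4;11 and DOHH2 cells at 5000 cells/well in RPMI-1640 with 10% FBS were treated with compound at 1.5–10000 nM final, nine points, at 37 °C, 5% CO2. Exposure was 72 h for RS4;11 and 120 h for DOHH2. MTS was added for 2 h, absorbance read at 490/650 nm, and IC50 calculated.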

RS4;11 cells = experiment: Cell proliferation assay (MTS), RS4;11 cells, 72 h; type: cell-based; settings: Homo sapiens, RS4-11, 72 h
Procedure, shortened: as §1

Compound | IC50 (DOHH2 cells) [nM] | IC50 (RS4;11 cells) [nM]
CC1(C)CCC(CN2CCN(c3ccc(C(=O)NS(=O)(=O)c4cc5c(c([N+](=O)[O-])c4)N[C@H](CCN4CCS(=O)(=O)CC4)CO5)c(Oc4cnc5[nH]ccc5c4)c3)CC2)=C(c2ccc(Cl)cc2)C1 [Example 2-126, (R)-2-((1H-pyrrolo[2,3-b]pyridin-5-yl)oxy)-4-(4-((4′-chloro-5,5-dimethyl-3,4,5,6-tetra-hydro-[1,1′-biphenyl]-2-yl)methyl)piperazin-1-yl)-N-((3-(2-(1,1-dioxidothiomorpholino)ethyl)-5-nitro-3,4-dihydro-2H-benzo[b] [1,4]oxazin-7-yl)sulfonyl)benzamide] | 11 | 5
CN=S1(=O)CCN(CC[C@@H]2COc3cc(S(=O)(=O)NC(=O)c4ccc(N5CCN(CC6=C(c7ccc(Cl)cc7)CC(C)(C)CC6)CC5)cc4Oc4cnc5[nH]ccc5c4)cc([N+](=O)[O-])c3N2)CC1 [Example 2-127] | 42 | 23
CCN=S1(=O)CCN(CC[C@@H]2COc3cc(S(=O)(=O)NC(=O)c4ccc(N5CCN(CC6=C(c7ccc(Cl)cc7)CC(C)(C)CC6)CC5)cc4Oc4cnc5[nH]ccc5c4)cc([N+](=O)[O-])c3N2)CC1 [Example 2-128, (R)-2-((1H-pyrrolo[2,3-b]pyridin-5-yl)oxy)-4-(4-((4′-chloro-5,5-dimethyl-3,4,5,6-tetra-hydro-[1,1′-biphenyl]-2-yl)methyl)piperazin-1-yl)-N-((3-(2-(1-(ethylimino)-1-oxido-1λ^6-thiomorpholino)ethyl)-5-nitro-3,4-di-hydro-2H-benzo[b][1,4]oxazin-7-yl)sulfonyl) benzamide] | 28 | 20
CC1(C)CCC(CN2CCN(c3ccc(C(=O)NS(=O)(=O)c4cc5c(c([N+](=O)[O-])c4)N[C@H](CCN4CCS(=O)(=NC6CC6)CC4)CO5)c(Oc4cnc5[nH]ccc5c4)c3)CC2)=C(c2ccc(Cl)cc2)C1 [Example 2-129, (R)-2-((1H-pyrrolo[2,3-b]pyridin-5-yl)oxy)-4-(4-((4′-chloro-5,5-dimethyl-3,4,5,6-tetra-hydro-[1,1′-biphenyl]-2-yl)methyl)piperazin-1-yl)-N-((3-(2-(1-(cylcopropylimino)-1-oxido-1λ^6-thiomorphlino)ethyl)-5-nitro-3,4-dihydro-2H-benzo[b][1,4]oxazin-7-yl)sulfanoyl)benzamide] | 16 | 9
COC(=O)N=S1(=O)CCN(CC[C@@H]2COc3cc(S(=O)(=O)NC(=O)c4ccc(N5CCN(CC6=C(c7ccc(Cl)cc7)CC(C)(C)CC6)CC5)cc4Oc4cnc5[nH]ccc5c4)cc([N+](=O)[O-])c3N2)CC1 [Example 2-130, methyl (R)-(4-(2-(7-(N-(2-((1H-pyrrolo[2,3-b]pyri-din-5-yl)oxy)-4-(4-((4′-chloro-5,5-dimethyl-3,4,5,6-tetrahydro-[1,1′-biphenyl]-2-yl)meth-yl)piperazin-1-yl)benzoyl)sulfamoyl)-5-nitro-3,4-dihydro-2H-benzo[b][1,4]oxazin-3-yl)ethyl)-1-oxido-1λ^6-thiomorpholin-1-ylidene)carbamate] | 26 | 14
CC1(C)CCC(CN2CCN(c3ccc(C(=O)NS(=O)(=O)c4cc5c(c([N+](=O)[O-])c4)N[C@H](CCN4CCC(N=S(C)(C)=O)CC4)CO5)c(Oc4cnc5[nH]ccc5c4)c3)CC2)=C(c2ccc(Cl)cc2)C1 [Example 2-131, (R)-2-((1H-pyrrolo[2,3-b]pyridin-5-yl)oxy)-4-(4-((4′-chloro-5,5-dimethyl-3,4,5,6-tetra-hydro-[1,1′-biphenyl]-2-yl)methyl)piperazin-1-yl)-N-((3-(2-(4-((dimethyl(oxo)-λ^6-sulfa-nylidene)amino)piperidin-1-yl)ethyl)-5-nitro-3,4-dihydro-2H-benzo[b][1,4]oxazin-7-yl)sulfonyl)benzamide] | 39 | 9
CC1(C)CCC(CN2CCN(c3ccc(C(=O)NS(=O)(=O)c4cc5c(c([N+](=O)[O-])c4)N[C@@H](Cc4ccccc4)CO5)c(Oc4cnc5[nH]ccc5c4)c3)CC2)=C(c2ccc(Cl)cc2)C1 [Example 2-132, (S)-2-((1H-pyrrolo[2,3-b]pyridin-5-yl)oxy)-N-((3-benzyl-5-nitro-3,4-dihydro-2H-benzo [b][1,4]oxazin-7-yl)sulfonyl)-4-(4-((4′-chloro-5,5-dimethyl-3,4,5,6-tetrahydro-[1,1′-biphenyl]-2-yl)meth-yl)piperazin1-yl)benzamide] | 28 | 2
CC1(C)CCC(CN2CCN(c3ccc(C(=O)NS(=O)(=O)c4cc5c(c([N+](=O)[O-])c4)N[C@@H](Cc4ccccn4)CO5)c(Oc4cnc5[nH]ccc5c4)c3)CC2)=C(c2ccc(Cl)cc2)C1 [Example 2-133, (S)-2-((1H-pyrrolo[2,3-b]pyridin-5-yl)oxy)-4-(4-((4′-chloro-5,5-dimethyl-3,4,5,6-tetra-hydro-[1,1′-biphenyl]-2-yl)methyl)piperazin-1-yl)-N-((5-nitro-3-(pyridin-2-ylmethyl)-3,4-dihydro-2H-benzo[b][1,4]oxazin-7-yl)sulfonyl)benzamide] | 8 | 1
COC(=O)NC[C@@H]1COc2cc(S(=O)(=O)NC(=O)c3ccc(N4CCN(CC5=C(c6ccc(Cl)cc6)CC(C)(C)CC5)CC4)cc3Oc3cnc4[nH]ccc4c3)cc([N+](=O)[O-])c2N1 [Example 2-134, methyl (R)-((7-(N-(2-((1H-pyrrolo[2,3-b]pyridin-5-yl)oxy)-4-(4-((4′-chloro-5,5-dimethyl-3,4,5,6-tetrahydro-[1,1′-biphenyl]-2-yl)methyl)piperazin-1-yl)benzoyl)sulfamoyl)-5-nitro-3,4-dihydro-2H-benzo[b][1,4]oxazin-3-yl)methyl)carbamate] | 39 | 2
CC1(C)CCC(CN2CCN(c3ccc(C(=O)NS(=O)(=O)c4cc5c(c([N+](=O)[O-])c4)N[C@H](CNS(=O)(=O)C4CC4)CO5)c(Oc4cnc5[nH]ccc5c4)c3)CC2)=C(c2ccc(Cl)cc2)C1 [Example 2-138, (R)-2-((1H-pyrrolo[2,3-b]pyridin-5-yl)oxy)-4-(4-((4′-chloro-5,5-dimethyl-3,4,5,6-tetra-hydro-[1,1′-biphenyl]-2-yl)methyl)piperazin-1-yl)-N-((3-(cyclopropanesulfonamidometh-yl)-5-nitro-3,4-dihydro-2H-benzo[b][1,4]oxazin-7-yl)sulfonyl)benzamide] | 166 | 72
CC1(C)CCC(CN2CCN(c3ccc(C(=O)NS(=O)(=O)c4cc5c(c([N+](=O)[O-])c4)N[C@H](CNS(=O)(=O)C4CCOCC4)CO5)c(Oc4cnc5[nH]ccc5c4)c3)CC2)=C(c2ccc(Cl)cc2)C1 [Example 2-139, (R)-2-((1H-pyrolo[2,3-b]pyridin-5-yl)oxy)-4-(4-((4′-chloro-5,5-dimethyl-3,4,5,6-tetra-hydro-[1,1′-biphenyl]-2-yl)methyl)piperazin-1-yl)-N-((5-nitro-3-(((tetrahydro-2H-pyran)-4-sulfonamido)methyl)-3,4-dihdyro-2H-benzo[b][1,4]oxazin-7-yl)sulfonyl)benzamide] | 338 | 88
CC1(C)CCC(CN2CCN(c3ccc(C(=O)NS(=O)(=O)c4cc5c(c([N+](=O)[O-])c4)N[C@@H](CC(=O)N4CCOCC4)CO5)c(Oc4cnc5[nH]ccc5c4)c3)CC2)=C(c2ccc(Cl)cc2)C1 [Example 2-142, (S)-2-((1H-pyrrolo[2,3-b]pyridin-5-yl)oxy)-4-(4-((4′-chloro-5,5-dimethyl-3,4,5,6-tetra-hydro-[1,1′-biphenyl]-2-yl)methyl)piperazin-1-yl)-N-((3-(2-morpholino-2-oxoethyl)-5-nitro-3,4-dihydro-2H-benzo[b][1,4]oxazin-7-yl)sulfonyl)benzamide] | 28 | 3
CC1(C)CCC(CN2CCN(c3ccc(C(=O)NS(=O)(=O)c4cc5c(c([N+](=O)[O-])c4)N[C@H](CC(=O)N4CCOCC4)CO5)c(Oc4cnc5[nH]ccc5c4)c3)CC2)=C(c2ccc(Cl)cc2)C1 [Example 2-143, (R)-2-((1H-pyrrolo[2,3-b]pyridin-5-yl)oxy)-4-(4-((4′-chloro-5,5-dimethyl-3,4,5,6-tetra-hydro-[1,1′-biphenyl]-2-yl)methyl)piperazin-1-yl)-N-((3-(2-morpholino-2-oxoethyl)-5-nitro-3,4-dihydro-2H-benzo[b][1,4]oxazin-7-yl)sulfonyl)benzamide] | 35 | 35
CC1(C)CCC(CN2CCN(c3ccc(C(=O)NS(=O)(=O)c4cc5c(c([N+](=O)[O-])c4)N[C@H](CC#N)CO5)c(Oc4cnc5[nH]ccc5c4)c3)CC2)=C(c2ccc(Cl)cc2)C1 [Example 2-144, (R)-2-((1H-pyrrolo[2,3-b]pyridin-5-yl)oxy)-4-(4-((4′-chloro-5,5-dimethyl-3,4,5,6-tetra-hydro-[1,1′-biphenyl]-2-yl)methyl)piperazin-1-yl)-N-((3-(cyanomethyl)-5-nitro-3,4-di-hydro-2H-benzo[b][1,4]oxazin-7-yl)sulfo-nyl)benzamide] | 14 | 3
CC1(C)CCC(CN2CCN(c3ccc(C(=O)NS(=O)(=O)c4cc5c(c([N+](=O)[O-])c4)N[C@H](CS(C)(=O)=O)CO5)c(Oc4cnc5[nH]ccc5c4)c3)CC2)=C(c2ccc(Cl)cc2)C1 [Example 2-145, (S)-2-((1H-pyrrolo[2,3-b]pyridin-5-yl)oxy)-4-(4-((4′-chloro-5,5-dimethyl-3,4,5,6-tetra-hydro-[1,1′-biphenyl]-2-yl)methyl)piperazin-1-yl)-N-((3-((methylsulfonyl)methyl)-5-nitro-3,4-dihydro-2H-benzo[b][1,4]oxazin-7-yl)sulfonyl)benzamide] | 87 | 1
